Results reported in the NIST ThermoML archive (doi:10.1021/je100102q).
± gives the expanded uncertainty stated by the source.

Settings: Gas, isochoric method

FCC(F)(F)F [1,1,1,2-tetrafluoroethane]
Settings | molar volume [m3/mol]
253.09 K, 107.6 kPa | 0.01875 ± 0.00016
272.92 K, 158.9 kPa | 0.01358 ± 0.00016
282.69 K, 329.1 kPa | 0.006516 ± 0.00016
282.8 K, 121.4 kPa | 0.01878 ± 0.00016
292.87 K, 171.9 kPa | 0.0136 ± 0.00016
292.89 K, 126.2 kPa | 0.01878 ± 0.00016
302.58 K, 357.7 kPa | 0.006522 ± 0.00016
313.1 K, 135.4 kPa | 0.0188 ± 0.00016
313.1 K, 184.9 kPa | 0.01361 ± 0.00016
323.07 K, 386.5 kPa | 0.006528 ± 0.00016
333.03 K, 144.3 kPa | 0.01882 ± 0.00016
333.03 K, 1610.8 kPa | 0.001248 ± 0.00016
333.05 K, 197.5 kPa | 0.01362 ± 0.00016
342.96 K, 413.7 kPa | 0.006533 ± 0.00016
343 K, 1706.9 kPa | 0.001248 ± 0.00016
352.93 K, 153.2 kPa | 0.01883 ± 0.00016
352.94 K, 1798.6 kPa | 0.001249 ± 0.00016
353.04 K, 210 kPa | 0.01363 ± 0.00016
362.89 K, 440.7 kPa | 0.006539 ± 0.00016
362.9 K, 1888.6 kPa | 0.001249 ± 0.00016
372.82 K, 454 kPa | 0.006542 ± 0.00016
372.84 K, 162.1 kPa | 0.01885 ± 0.00016
372.87 K, 1976.6 kPa | 0.00125 ± 0.00016
372.99 K, 222.4 kPa | 0.01364 ± 0.00016
